Patent US20250235543A1, “MODIFIED PROTEINS AND PROTEIN DEGRADERS” (Cullgen (Shanghai), Inc., priority 2021, published 2025)
Read-outs that look alike come from different tables or passages of the source.

What was measured:
[1] = molecular target: T1, CDK4 (Homo sapiens, UniProt P11802); experiment: CDK4 percentage degradation in Calu-1 cells (immunoblotting); assay type: cell-based; details: for inhibition at 0.2 µM: read-out: CDK4 Degradation (200 nM); for inhibition at 10 µM: read-out: CDK4 Degradation (10 μM)
T1 construct: endogenous in cells; host or cells: Calu-1
T1 sequence (P11802 2-303 limits assumed): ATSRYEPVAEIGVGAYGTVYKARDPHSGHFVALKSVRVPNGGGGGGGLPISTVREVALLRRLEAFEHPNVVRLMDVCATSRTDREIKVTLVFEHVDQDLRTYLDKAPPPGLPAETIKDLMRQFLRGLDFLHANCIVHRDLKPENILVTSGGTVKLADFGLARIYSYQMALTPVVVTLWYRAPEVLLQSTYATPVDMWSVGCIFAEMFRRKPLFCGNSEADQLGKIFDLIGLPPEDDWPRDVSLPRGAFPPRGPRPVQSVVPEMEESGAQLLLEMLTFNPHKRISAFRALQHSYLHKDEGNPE
T1 sequence (P24385 whole entry partner): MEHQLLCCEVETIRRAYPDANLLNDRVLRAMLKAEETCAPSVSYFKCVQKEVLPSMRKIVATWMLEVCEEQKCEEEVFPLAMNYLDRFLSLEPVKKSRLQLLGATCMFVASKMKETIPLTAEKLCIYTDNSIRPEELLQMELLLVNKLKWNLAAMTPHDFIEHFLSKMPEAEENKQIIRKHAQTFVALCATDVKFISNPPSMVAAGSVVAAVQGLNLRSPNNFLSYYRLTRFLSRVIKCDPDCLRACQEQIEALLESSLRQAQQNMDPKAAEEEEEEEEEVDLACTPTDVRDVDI
T1 sequence (Q16531 2-1140 limits assumed, further chain): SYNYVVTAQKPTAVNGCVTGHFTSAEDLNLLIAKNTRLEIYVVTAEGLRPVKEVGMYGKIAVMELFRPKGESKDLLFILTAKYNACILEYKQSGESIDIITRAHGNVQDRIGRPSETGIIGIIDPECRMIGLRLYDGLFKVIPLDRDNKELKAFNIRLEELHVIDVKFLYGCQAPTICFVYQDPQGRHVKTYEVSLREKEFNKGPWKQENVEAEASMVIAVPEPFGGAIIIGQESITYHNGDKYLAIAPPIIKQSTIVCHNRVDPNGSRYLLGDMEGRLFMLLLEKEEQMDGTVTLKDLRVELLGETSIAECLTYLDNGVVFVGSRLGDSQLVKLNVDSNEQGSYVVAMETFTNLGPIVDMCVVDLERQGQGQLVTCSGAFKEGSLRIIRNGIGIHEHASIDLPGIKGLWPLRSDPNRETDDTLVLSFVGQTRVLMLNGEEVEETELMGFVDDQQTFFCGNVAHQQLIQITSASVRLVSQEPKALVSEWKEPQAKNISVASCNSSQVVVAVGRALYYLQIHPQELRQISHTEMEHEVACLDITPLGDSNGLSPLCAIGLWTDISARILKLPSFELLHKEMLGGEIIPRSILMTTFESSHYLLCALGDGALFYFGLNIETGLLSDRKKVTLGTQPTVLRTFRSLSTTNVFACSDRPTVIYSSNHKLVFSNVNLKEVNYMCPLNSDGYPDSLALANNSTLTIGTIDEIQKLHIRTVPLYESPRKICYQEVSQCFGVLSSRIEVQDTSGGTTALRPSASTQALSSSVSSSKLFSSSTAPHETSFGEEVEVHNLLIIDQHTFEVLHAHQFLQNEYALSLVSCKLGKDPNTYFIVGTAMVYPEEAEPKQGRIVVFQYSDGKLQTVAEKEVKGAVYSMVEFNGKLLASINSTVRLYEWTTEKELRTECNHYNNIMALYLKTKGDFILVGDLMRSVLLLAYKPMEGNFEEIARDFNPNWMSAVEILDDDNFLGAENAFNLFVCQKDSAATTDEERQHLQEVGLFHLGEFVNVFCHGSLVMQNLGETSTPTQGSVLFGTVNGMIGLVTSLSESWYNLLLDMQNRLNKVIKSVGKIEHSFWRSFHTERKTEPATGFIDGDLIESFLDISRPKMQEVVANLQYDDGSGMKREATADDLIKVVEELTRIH
How it was run: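 CDK4 degradation was measured by immunoblotting. Cells were washed in cold PBS and lysed in RIPA buffer with inhibitors for 30 min at 4° C., then spun at 13,000 rpm to clear. After BCA protein determination, lysates were heated at 99° C. for 5 min in Laemmli buffer, resolved on SDS-PAGE, imaged on a ChemiDoc MP with ECL substrate, and band intensities quantified.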

[2] = test system: cyclin D1; experiment: Cyclin D1 percentage degradation in Calu-1 cells (immunoblotting); assay type: cell-based; details: 16 hours
How it was run: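 Cyclin D1 degradation was assessed by western blot. Clarified lysates, obtained by RIPA lysis with inhibitors and centrifugation at 13,000 rpm, were normalized by BCA protein assay and separated by SDS-PAGE. Bands were detected with Western ECL Substrate on a Bio-Rad ChemiDoc MP Imaging system and quantified in Image Lab software to derive percentage degradation.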

SMILES: CC(=O)c1c(C)c2cnc(Nc3ccc(N4CCN(CC(=O)NCCOCCNc5ccc(C)c(C(=O)Nc6nc(C)c(C)s6)c5)CC4)cn3)nc2n(C2CCCC2)c1=O [CPD-096, 5-((2-(2-(2-(4-(6-((6-Acetyl-8-cyclopentyl-5-methyl-7-oxo-7,8-dihydropyrido[2,3-d]pyrimidin-2-yl)amino)pyridin-3-yl)piperazin-1-yl)acetamido)ethoxy)ethyl)amino)-N-(4,5-dimethylthiazol-2-yl)-2-methylbenzamide]
- inhibition at 0.2 µM ([1]; Calu-1 cells, 200 nM, 16 hours): < 30%
- CyclinD1 Degradation (200 nM) [2]: D (protein percentage degradation <30%)

SMILES: CC(=O)c1c(C)c2cnc(Nc3ccc(N4CCN(CC(=O)NCCOCCOCCNc5ccc(C)c(C(=O)Nc6nc(C)c(C)s6)c5)CC4)cn3)nc2n(C2CCCC2)c1=O [CPD-089, 5-((2-(2-(2-(2-(4-(6-((6-Acetyl-8-cyclopentyl-5-methyl-7-oxo-7,8-dihydropyrido[2,3-d]pyrimidin-2-yl)amino)pyridin-3-yl)piperazin-1-yl)acetamido)ethoxy)ethoxy)ethyl)amino)-N-(4,5-dimethylthiazol-2-yl)-2-methylbenzamide]
- inhibition at 0.2 µM ([1]; Calu-1 cells, 200 nM, 16 hours): 50 to 80%
- CyclinD1 Degradation (200 nM) [2]: B (protein percentage degradation <80%, and >=50%)

SMILES: CC(=O)c1c(C)c2cnc(Nc3ccc(N4CCN(C(=O)CNc5cccc(C(=O)Nc6nc(C)c(C)s6)c5C)CC4)cn3)nc2n(C2CCCC2)c1=O [CPD-124, 3-((2-(4-(6-((6-Acetyl-8-cyclopentyl-5-methyl-7-oxo-7,8-dihydropyrido[2,3-d]pyrimidin-2-yl)amino)pyridin-3-yl)piperazin-1-yl)-2-oxoethyl)amino)-N-(4,5-dimethylthiazol-2-yl)-2-methylbenzamide]
- inhibition at 0.2 µM ([1]; Calu-1, 16 h): < 30%
- CyclinD1 Degradation (200 nM) [2]: D (protein percentage degradation <30%)

SMILES: CC(=O)c1c(C)c2cnc(Nc3ccc(N4CCN(CC(=O)NCCOCCOCCC(=O)Nc5cccc(Cl)c5C(=O)Nc5ccc(C)cn5)CC4)cn3)nc2n(C2CCCC2)c1=O [CPD-337]
- inhibition at 0.2 µM ([1]; Calu-1 cells, 200 nM, 16 hours): < 30%
- CyclinD1 Degradation (200 nM) [2]: D (protein percentage degradation <30%)

SMILES: CC(=O)c1c(C)c2cnc(Nc3ccc(N4CCN(CC(=O)NCCOCCOCCOCCOCCOCCNc5ccc(C)c(C(=O)Nc6nc(C)c(C)s6)c5)CC4)cn3)nc2n(C2CCCC2)c1=O [CPD-097, 5-((1-(4-(6-((6-Acetyl-8-cyclopentyl-5-methyl-7-oxo-7,8-dihydropyrido[2,3-d]pyrimidin-2-yl)amino)pyridin-3-yl)piperazin-1-yl)-2-oxo-6,9,12,15,18-pentaoxa-3-azaicosan-20-yl)amino)-N-(4,5-dimethylthiazol-2-yl)-2-methylbenzamide]
- inhibition at 0.2 µM ([1]; Calu-1 cells, 200 nM, 16 hours): 50 to 80%
- CyclinD1 Degradation (200 nM) [2]: A (protein percentage degradation >=80%)

SMILES: CCc1nc(NC(=O)c2ccccc2NC(=O)CCOCCOCCNC(=O)CN2CCN(c3ccc(Nc4ncc5c(C)c(C(C)=O)c(=O)n(C6CCCC6)c5n4)nc3)CC2)sc1C [CPD-075, 2-(3-(2-(2-(2-(4-(6-((6-Acetyl-8-cyclopentyl-5-methyl-7-oxo-7,8-dihydropyrido[2,3-d]pyrimidin-2-yl)amino)pyridin-3-yl)piperazin-1-yl)acetamido)ethoxy)ethoxy)propanamido)-N-(4-ethyl-5-methylthiazol-2-yl)benzamide]
- inhibition at 0.2 µM ([1]; Calu-1 cells, 200 nM, 16 hours): > 80%
- CyclinD1 Degradation (200 nM) [2]: A (protein percentage degradation >=80%)

SMILES: CC(=O)c1c(C)c2cnc(Nc3ccc(N4CCN(CC(=O)NCCOCCOCCOCCNC(=O)c5ccc(C(=O)Nc6ncc(C)s6)c(C)c5)CC4)cn3)nc2n(C2CCCC2)c1=O [CPD-011, N^4-(1-(4-(6-((6-Acetyl-8-cyclopentyl-5-methyl-7-oxo-7,8-dihydropyrido[2,3-d]pyrimidin-2-yl)amino)pyridin-3-yl)piperazin-1-yl)-2-oxo-6,9,12-trioxa-3-azatetradecan-14-yl)-2-methyl-N^1-(5-methylthiazol-2-yl)terephthalamide]
- inhibition at 0.2 µM ([1]; Calu-1 cells, 200 nM, 16 hours): < 30%
- CyclinD1 Degradation (200 nM) [2]: D (protein percentage degradation <30%)

SMILES: Cc1nc(NC(=O)c2ccccc2NC(=O)CCOCCOCCOCCOCCNC(=O)CN2CCN(c3ccc(Nc4ncc5cc(C(=O)N(C)C)n(C6CCCC6)c5n4)nc3)CC2)sc1C [CPD-297, 7-Cyclopentyl-2-((5-(4-(18-((2-((4,5-dimethylthiazol-2-yl)carbamoyl)phenyl)amino)-2,18-dioxo-6,9,12,15-tetraoxa-3-azaoctadecyl)piperazin-1-yl)pyridin-2-yl)amino)-N,N-dimethyl-7H-pyrrolo[2,3-d]pyrimidine-6-carboxamide]
- inhibition at 10 µM ([1]; Calu-1 cells, 16 hours): 50 to 80%
- CyclinD1 Degradation (10 μM) [2]: A (protein percentage degradation >= 80%)

SMILES: Cc1nc(NC(=O)c2ccccc2NC(=O)CCOCCOCCOCCOCCOCCNC(=O)CN2CCN(Cc3ccc(Nc4ncc(F)c(-c5cc(F)c6nc(C)n(C(C)C)c6c5)n4)nc3)CC2)sc1C [CPD-284, N-(4,5-Dimethylthiazol-2-yl)-2-(1-(4-((6-((5-fluoro-4-(4-fluoro-1-isopropyl-2-methyl-1H-benzo[d]imidazol-6-yl)pyrimidin-2-yl)amino)pyridin-3-yl)methyl)piperazin-1-yl)-2-oxo-6,9,12,15,18-pentaoxa-3-azahenicosan-21-amido)benzamide]
- inhibition at 10 µM ([1]; Calu-1 cells, 16 hours): < 30%
- CyclinD1 Degradation (10 μM) [2]: D (protein percentage degradation < 30%)

SMILES: Cc1nc(NC(=O)c2ccccc2NC(=O)CCCCNC(=O)CN2CCN(c3ccc(Nc4ncc5cc6n(c5n4)C4(CCCCC4)CNC6=O)nc3)CC2)sc1C [CPD-317, N-(4,5-Dimethylthiazol-2-yl)-2-(5-(2-(4-(6-((6′-oxo-7′,8′-dihydro-6′H-spiro[cyclohexane-1,9′-pyrazino[1′,2′:1,5]pyrrolo[2,3-d]pyrimidin]-2′-yl)amino)pyridin-3-yl)piperazin-1-yl)acetamido)pentanamido)benzamide]
- inhibition at 10 µM ([1]; Calu-1 cells, 16 hours): 50 to 80%
- CyclinD1 Degradation (10 μM) [2]: A (protein percentage degradation >= 80%)

SMILES: Cc1nc(NC(=O)c2ccccc2NC(=O)CCOCCNC(=O)CN2CCN(c3ccc(Nc4ncc5cc(C(=O)N(C)C)n(C6CCCC6)c5n4)nc3)CC2)sc1C [CPD-294, 7-Cyclopentyl-2-((5-(4-(2-((2-(3-((2-((4,5-dimethylthiazol-2-yl)carbamoyl)phenyl)amino)-3-oxopropoxy)ethyl)amino)-2-oxoethyl)piperazin-1-yl)pyridin-2-yl)amino)-N,N-dimethyl-7H-pyrrolo[2,3-d]pyrimidine-6-carboxamide]
- inhibition at 10 µM ([1]; Calu-1 cells, 16 hours): 50 to 80%
- CyclinD1 Degradation (10 μM) [2]: A (protein percentage degradation >= 80%)

SMILES: CNc1ccc(C(=O)Nc2ccc(N(C)C)nn2)c(NCCCCCNC(=O)CN2CCN(c3ccc(Nc4ncc5c(C)c(C(C)=O)c(=O)n(C6CCCC6)c5n4)nc3)CC2)c1 [CPD-377, 2-((5-(2-(4-(6-((6-Acetyl-8-cyclopentyl-5-methyl-7-oxo-7,8-dihydropyrido[2,3-d]pyrimidin-2-yl)amino)pyridin-3-yl)piperazin-1-yl)acetamido)pentyl)amino)-N-(6-(dimethylamino)pyridazin-3-yl)-4-(methylamino)benzamide]
- inhibition at 0.2 µM ([1]; Calu-1 cells, 200 nM, 16 hours): 50 to 80%
- CyclinD1 Degradation (200 nM) [2]: A (protein percentage degradation >=80%)

SMILES: CC(=O)c1c(C)c2cnc(Nc3ccc(N4CCN(CC(=O)NCCOCCOCCC(=O)Nc5ccccc5C(=O)Nc5ccc(C)s5)CC4)cn3)nc2n(C2CCCC2)c1=O [CPD-065, 2-(3-(2-(2-(2-(4-(6-((6-Acetyl-8-cyclopentyl-5-methyl-7-oxo-7,8-dihydropyrido[2,3-d]pyrimidin-2-yl)amino)pyridin-3-yl)piperazin-1-yl)acetamido)ethoxy)ethoxy)propanamido)-N-(5-methylthiophen-2-yl)benzamide]
- inhibition at 0.2 µM ([1]; Calu-1 cells, 200 nM, 16 hours): 50 to 80%
- CyclinD1 Degradation (200 nM) [2]: A (protein percentage degradation >=80%)
